Data reported in patent publication US10160705B2, “Class of HDAC inhibitors expands the renal progenitor cells population and improves the rate of recovery from acute kidney injury” (University of Pittsburgh—Of the Commonwealth System of …, priority 2011, dated 2018).
Read-outs that look alike come from different tables or passages of the source.

Columns and labels:
renal progenitor cells = assay: In situ hybridization for lhx1a expression in 10-somite embryos (renal progenitor cell expansion); format: in vivo; conditions: for responders at 3 µM / responders at 1.5 µM / responders at 0.2 µM / responders at 0.4 µM / EC50 / responders at 0.8 µM: Danio rerio; for Lhx1a expansion caused by analog treatment, 800 nM: 800 nM from 2 hpf; for responders at 0.2 µM: 200 nM, read-out: Expansion of Cells (including repeats* and recounts**) 200 nM; for responders at 0.4 µM: 400 nM, read-out: Expansion of Cells (including repeats* and recounts**) 400 nM; for EC50: first pass EC50 from percent expansion (Excel trendline), average where several experiments; for responders at 0.8 µM: 800 nM, read-out: Expansion of Cells (including repeats* and recounts**) 800 nM; as to Lhx1a expansion caused by analog treatment, 200 nM: key: effective (+); partially effective (+/−); ineffective (−); Analogs that killed all embryos at a given concentration before reaching 10 somites are listed as XX; as to Lhx1a expansion caused by analog treatment, 3 μM: key: effective (+); partially effective (+/−); ineffective (−); Analogs that killed all embryos at a given concentration before reaching 10 somites are listed as XX; as to Lhx1a expansion caused by analog treatment, 400 nM: key: effective (+); partially effective (+/−); ineffective (−); Analogs that killed all embryos at a given concentration before reaching 10 somites are listed as XX; as to Lhx1a expansion caused by analog treatment, 800 nM: key: effective (+); partially effective (+/−); ineffective (−); Analogs that killed all embryos at a given concentration before reaching 10 somites are listed as XX
Experimental: PTBA was synthesized as described below. Hydroxyurea and aphidicolin were obtained from Sigma-Aldrich.
In situ hybridization and immunocytochemistry: In situ hybridization was performed as previously described with some modifications.142 Hybridization temperature was 65° C. Embryos were blocked in 2% blocking reagent (Roche) with 5% sheep serum in MAB (100 mM maleic acid and 150 mM NaCl [pH 7.5]). Whole-mount immunocytochemistry with 1:25 mouse anti-α6F antibody (Developmental Studies Hybridoma Bank) and 1:100 Cy3 secondary antibody (Jackson ImmunoResearch) was performed as described previously.108 Embryos were embedded in JB-4 for sectioning per the manufacturer's instructions (Polysciences), sectioned at 5 μm, and mounted with Cytoseal 60 (Richard-Allan Scientific).
The remaining PTBA analogs were synthesized.
In situ hybridization for lhx1a was performed as described above. […] Compounds were classified as effective, partially-effective or ineffective based on comparison to the effects of PTBA at a given concentration.
Testing of the compounds is on-going, but for those tested, Table 6 provides first pass EC50s based upon colormetric in situ hybridizations for the Lhx1a mRNA expression levels. After the procedure is run, in situ hybridization is done for the lhx1 mRNA expression and the number of embryos that show an expanded kidney field is manually counted to establish the percent of embryos showing expansion. Then the EC50 is determined by plotting the percent expansion in Excel, graphing the results and using the trendline function to determine the 50 percent point.

zebrafish embryos = assay: Phenotypic screen for edema and survival in zebrafish larvae at 72 hpf; conditions: for Dead / Edemic 1 (E1) / Edemic 2 (E2) / Edemic 3 (E3) / Wild-type (WT): number of larvae (of 36), 3 μM from 2 hpf, scored at 72 hpf
Experimental: The screen was performed in zebrafish embryos using the National Cancer Institute's Developmental Therapeutics Program (NCI/DTP) Diversity Set I. This library contains 1990 compounds selected by pharmacophore modeling to represent the more than 140,000 small molecules maintained in the NCI/DTP Open Repository. Compounds from the NCI/DTP Diversity Set I were diluted to 10 μM in E3 embryo medium (5 mM NaCl, 0.33 mM CaCl2, 0.33 mM MgSO4, and 0.17 mM KCl) in a final DMSO concentration of 0.5% and arrayed in 96-well plates. Beginning at approximately 2 hpf, embryos were transferred to each well in groups of five using a glass pipette. The plates were incubated at 28.5° C. for 70 hours. Individual wells were then scored for a dominant phenotype, representative of at least four of the five embryos. The primary objective was to identify compounds that caused edema in treated embryos at 72 hpf. Small molecules generating edema were retested once for verification, before obtaining additional compound from the NCI/DTP Open Repository.
PTBA was synthesized as described below. Hydroxyurea and aphidicolin were obtained from Sigma-Aldrich. Groups of 20 to 30 chorionated 2 hpf embryos were arrayed in individual wells of 12-well plates. E3 medium was removed with a glass pipette and replaced with 1.5 ml treatment solutions containing 0.5% DMSO in E3 with or without compound at the reported concentrations. Treatments for all studies were initiated at 2 hpf, except for the temporal studies (FIG. 6) and the HUA studies (FIG. 11). HUA studies were performed as described previously (Zhang, L., et al. Cell cycle progression is required for zebrafish somite morphogenesis but not segmentation clock function. Development 135, 2065-2070, (2008)), with the following modifications. HUA in 0.5% DMSO was added at early gastrulation (5 hpf) and PTBA was subsequently added at late gastrulation (8 hpf) to allow for penetration of the proliferation inhibitors. All embryos were incubated at 28.5° C. until the required developmental stage.
Following 70 hours of treatment (as described above), edemic phenotypes in 72 hpf larvae were scored using a phenotype-based classification system. Wild type: no visible edema or developmental delay. […] Significant effects (p<0.05) on survival were determined by two-tailed Fisher's exact test in comparison with the 0 μM PTBA treatment group.
PTBA and methyl-4-(phenylthio)butanoate were synthesized as described above. 4-(Naphthalen-2-ylthio)butanoic acid (NSC2733) and 3-(phenylthio)benzoic acid (NSC113994), were obtained from the NCI/DTP Open Repository. APHA compound 8, Apicidin, butanoic acid, PBA, 4-phenoxybutanoic acid, 5-phenylpentanoic acid, Scriptaid, TSA, and valproic acid were obtained from Sigma-Aldrich. MS-275 and SAHA were obtained from Cayman Chemical Co. 4-(phenylsulfonyl)butanoic acid was obtained from Matrix Scientific. Tubacin was a gift of Dr. Ralph Mazitschek of the Broad Institute (Cambridge, Mass.). The remaining PTBA analogs were synthesized. Three independent groups of 12 chorionated 2 hpf embryos were arrayed in individual wells of 24-well plates. E3 medium was removed with a glass pipette and replaced with 800 μl treatment solutions containing 0.5% DMSO in E3 with or without compound at the reported concentrations.
Phenotypic screening of PTBA analogs was performed identically to the concentration-response experiments detailed above. Embryos were treated with each PTBA analog from 2 to 72 hpf as described above.

[1] = 3 μM from 2 hpf, 10-somite embryos
[2] = 1.5 μM from 2 hpf, 10-somite embryos
[3] = 1.5 μM from 2 hpf, 10-somite embryos, read-out: lhx1a expansion, percent of treated embryos
[4] = percent of embryos with expanded kidney field, 1.5 μM, read-out: Expansion of Cells (including repeats* and recounts**) 1.5 μM
[5] = percent of embryos with expanded kidney field, 3 μM, read-out: Expansion of Cells (including repeats* and recounts**) 3 μM
[6] = percent of embryos with expanded kidney field

Structure (SMILES)	Lhx1a expansion caused by analog treatment, 3 μM (renal progenitor cells; [1])	effect on zebrafish embryos in the phenotypic screen (zebrafish embryos; 3 μM)	Dead (zebrafish embryos)	Edemic 1 (E1) (zebrafish embryos)	Edemic 2 (E2) (zebrafish embryos)	Edemic 3 (E3) (zebrafish embryos)	Wild-type (WT) (zebrafish embryos)	responders at 3 µM (renal progenitor cells; 3 μM from 2 hpf, 10-somite embryos, read-out: lhx1a expansion, percent of treated embryos)	Lhx1a expansion caused by analog treatment, 1.5 μM (renal progenitor cells; [2])	responders at 1.5 µM (renal progenitor cells; [3])	responders at 1.5 µM (renal progenitor cells; [4])	responders at 3 µM (renal progenitor cells; [5])	Lhx1a expansion caused by analog treatment, 800 nM (renal progenitor cells; 10-somite embryos)	responders at 0.2 µM (renal progenitor cells; [6])	responders at 0.4 µM (renal progenitor cells; [6])	EC50 (renal progenitor cells)	Lhx1a expansion caused by analog treatment, 200 nM (renal progenitor cells; 200 nM from 2 hpf, 10-somite embryos)	Lhx1a expansion caused by analog treatment, 400 nM (renal progenitor cells; 400 nM from 2 hpf, 10-somite embryos)	responders at 0.8 µM (renal progenitor cells; [6])
O=C(CCCCCCC(=O)Nc1ccccc1)NO [SAHA, reference compound]	−	no effect	0	0	0	0	36												
O=C(CCCCCN1C(=O)c2cccc3cccc(c23)C1=O)NO [Scriptaid, reference compound]	+/−		0	1	0	0	35	39%											
COC(=O)CCCSc1ccc(Cl)cc1 [UPHD-00021, methyl 4-[(4-chloro-phenyl)sulfanyl]butanoate]	+		1	10	6	19	0		+/−	72%	72%	97%							
O=C(CCCSc1ccccc1)NO [UPHD-00023, N-hydroxy- 4(phenyl- sulfanyl)butanamide]	+		0	3	20	13	0		+	92%	92%	100%	+/−	0%	6%	1300 nM			
CCCOC(=O)CCCSc1ccccc1 [UPHD-00024, propyl 4-(phenylsulfanyl)butanoate]	+		6	7	8	15	0		+	89%	89%	94%	+/−	0%	10%	1270 nM			
COC(=O)CCCSc1ccc(C)cc1 [UPHD-00026, methyl 4-[(4-methyl-phenyl)sulfanyl]butanoate]	+		11	0	2	23	0		+	100%	100%	100%	+	3%	14%		−	−	49%
O=C(CCCSc1ccc(Cl)cc1)NO [UPHD-00027, 4-[(4-chloro-phenyl)sulfanyl]-N-hydroxybutanamide]	+		14	0	0	22	0		+	97%	97%	94%	+/−						17%
